In the assay the target is T1, His-hMAGL (recombinant polyhistidine tagged human MAGL protein) (Homo sapiens, UniProt Q99685).
T1 construct: polyhistidine (His) (N); made in house; host or cells: E. coli BL21(DE3)
T1 sequence (Q99685 1-303): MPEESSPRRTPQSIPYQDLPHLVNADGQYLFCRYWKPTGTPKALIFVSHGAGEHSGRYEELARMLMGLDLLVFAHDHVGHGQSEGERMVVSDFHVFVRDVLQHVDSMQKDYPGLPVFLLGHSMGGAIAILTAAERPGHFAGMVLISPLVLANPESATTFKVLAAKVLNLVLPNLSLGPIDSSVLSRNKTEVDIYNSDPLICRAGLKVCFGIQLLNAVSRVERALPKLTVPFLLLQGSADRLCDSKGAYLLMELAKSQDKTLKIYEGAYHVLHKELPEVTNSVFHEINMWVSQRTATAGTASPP
Put plainly: Measurement of MAGL inhibitory activity (RapidFire-mass spectrometry of arachidonic acid produced from 2-arachidonylglycerol). Type of assay: biochemical. Particulars: test compound 10 μM; His-hMAGL; substrate 2-arachidonylglycerol; 60 min preincubation; read-out: % inhibition (10 μM). The procedure, abridged:
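After quenching with acetonitrile containing 3 μM arachidonic acid-d8, the arachidonic acid formed was measured by online SPE RapidFire-MS/MS in negative SRM mode and corrected against the d8 standard. Inhibition (%) was calculated relative to compound-free and enzyme-free groups.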

Molecules are shown by their SMILES.

Broadly, the inhibition is the drop in the measured response relative to a control, in per cent.

For `O=C1N[C@]2(CO1)C[C@H](C(=O)N1CC(CC(F)(F)c3ccc(C(F)(F)F)cc3F)C1)C2` [Example 91, (2s,4s)-2-((3-(2,2-difluoro-2-(2-fluoro-4-(trifluoromethyl)phenyl)ethyl)azetidin-1-yl)carbonyl)-7-oxa-5-azaspiro[3.4]octan-6-one], the inhibition at 10 µM was determined as 100%.

For the molecule `Cc1cc(Cl)ccc1COC1CN(C(=O)[C@H]2C[C@]3(COC(=O)N3)C2)C1` [Example 92, (2s,4s)-2-((3-((4-chloro-2-methylbenzyl)oxy)azetidin-1-yl)carbonyl)-7-oxa-5-azaspiro[3.4]octan-6-one], the inhibition at 10 µM turned out to be 100%.

For the molecule `Cc1ccc(COC2CN(C(=O)[C@H]3C[C@]4(COC(=O)N4)C3)C2)c(F)c1F` [Example 94, (2s,4s)-2-((3-((2,3-difluoro-4-methylbenzyl)oxy)azetidin-1-yl)carbonyl)-7-oxa-5-azaspiro[3.4]octan-6-one], the inhibition at 10 µM turned out to be 100%.

As for `O=C1N[C@]2(CO1)C[C@H](C(=O)N1CC(OCc3ccc(C(F)(F)F)c(F)c3F)C1)C2` [Example 96, (2s,4s)-2-((3-((2,3-difluoro-4-(trifluoromethyl)benzyl)oxy)azetidin-1-yl)carbonyl)-7-oxa-5-azaspiro[3.4]octan-6-one], the inhibition at 10 µM is 100%.

Regarding `O=C1N[C@]2(CO1)C[C@H](C(=O)N1CC(CC(F)(F)c3ccc(C(F)(F)F)c(F)c3)C1)C2` [Example 99, (2s,4s)-2-((3-(2,2-difluoro-2-(3-fluoro-4-(trifluoromethyl)phenyl)ethyl)azetidin-1-yl)carbonyl)-7-oxa-5-azaspiro[3.4]octan-6-one], the inhibition at 10 µM was determined as 100%.

For `O=C1N[C@]2(CO1)C[C@H](C(=O)N1CC(CC(F)(F)c3ccc(F)c(C(F)(F)F)c3)C1)C2` [Example 100, (2s,4s)-2-((3-(2,2-difluoro-2-(4-fluoro-3-(trifluoromethyl)phenyl)ethyl)azetidin-1-yl)carbonyl)-7-oxa-5-azaspiro[3.4]octan-6-one], the inhibition at 10 µM is 100%.

For `O=C1N[C@]2(CO1)C[C@H](C(=O)N1CC(OCc3cc(F)c(C(F)(F)F)cc3F)C1)C2` [Example 101, (2s,4s)-2-((3-((2,5-difluoro-4-(trifluoromethyl)benzyl)oxy)azetidin-1-yl)carbonyl)-7-oxa-5-azaspiro[3.4]octan-6-one], the inhibition at 10 µM came out at 100%.

For `O=C1N[C@]2(CO1)C[C@H](C(=O)N1CC(OCc3ccc(C(F)(F)F)c(Cl)c3F)C1)C2` [Example 102, (2s,4s)-2-((3-((3-chloro-2-fluoro-4-(trifluoromethyl)benzyl)oxy)azetidin-1-yl)carbonyl)-7-oxa-5-azaspiro[3.4]octan-6-one], the inhibition at 10 µM was found to be 100%.

As for `O=C1N[C@]2(CO1)C[C@H](C(=O)N1CC(CC(F)(F)c3ccc(C(F)(F)F)c(F)c3F)C1)C2` [Example 103, (2s,4s)-2-((3-(2-(2,3-difluoro-4-(trifluoromethyl)phenyl)-2,2-difluoroethyl)azetidin-1-yl)carbonyl)-7-oxa-5-azaspiro[3.4]octan-6-one], the inhibition at 10 µM was 100%.

For the molecule `O=C1N[C@]2(CO1)C[C@H](C(=O)N1CC(/C=C(\F)c3ccc(C(F)(F)F)c(F)c3F)C1)C2` [Example 104, (2s,4s)-2-((3-((Z)-2-(2,3-difluoro-4-(trifluoromethyl)phenyl)-2-fluorovinyl)azetidin-1-yl)carbonyl)-7-oxa-5-azaspiro[3.4]octan-6-one], the inhibition at 10 µM stood at 100%.

Consider `O=C1N[C@]2(CO1)C[C@H](C(=O)N1CC(OCc3cc(Cl)c(F)c(Cl)c3)C1)C2` [Example 106, (2s,4s)-2-((3-((3,5-dichloro-4-fluorobenzyl)oxy)azetidin-1-yl)carbonyl)-7-oxa-5-azaspiro[3.4]octan-6-one], for which the inhibition at 10 µM worked out at 100%.

`Cc1ccc(C(F)(F)CC2CN(C(=O)[C@H]3C[C@]4(COC(=O)N4)C3)C2)cc1Cl` [Example 109, (2s,4s)-2-((3-(2-(3-chloro-4-methylphenyl)-2,2-difluoroethyl)azetidin-1-yl)carbonyl)-7-oxa-5-azaspiro[3.4]octan-6-one]: the inhibition at 10 µM worked out at 99%.

With `O=C1N[C@]2(CO1)C[C@H](C(=O)N1CC(CC(F)(F)c3ccc(C(F)(F)F)c(Cl)c3)C1)C2` [Example 110, (2s,4s)-2-((3-(2-(3-chloro-4-(trifluoromethyl)phenyl)-2,2-difluoroethyl)azetidin-1-yl)carbonyl)-7-oxa-5-azaspiro[3.4]octan-6-one], the inhibition at 10 µM amounted to 100%.

Take `O=C1N[C@]2(CO1)C[C@H](C(=O)N1CC(/C=C(\F)c3ccc(C(F)(F)F)c(Cl)c3)C1)C2` [Example 111, (2s,4s)-2-((3-((Z)-2-(3-chloro-4-(trifluoromethyl)phenyl)-2-fluorovinyl)azetidin-1-yl)carbonyl)-7-oxa-5-azaspiro[3.4]octan-6-one]: the inhibition at 10 µM was found to be 100%.

Regarding `O=C1N[C@]2(CO1)C[C@H](C(=O)N1CCC(C(F)(F)c3ccc(F)cc3Cl)CC1)C2` [Example 112, (2s,4s)-2-((4-((2-chloro-4-fluorophenyl)(difluoro)methyl)piperidin-1-yl)carbonyl)-7-oxa-5-azaspiro[3.4]actan-6-one], the inhibition at 10 µM was found to be 100%.

For the molecule `O=C1N[C@]2(CO1)C[C@H](C(=O)N1CC(OCc3cc(C(F)(F)F)cc(C(F)(F)F)c3)C1)C2` [Example 113, (2s,4s)-2-((3-((3,5-bis(trifluoromethyl)benzyl)oxy)azetidin-1-yl)carbonyl)-7-oxa-5-azaspiro[3.4]octan-6-one], the inhibition at 10 µM is 100%.

With `Cc1cc(COC2CN(C(=O)[C@H]3C[C@]4(COC(=O)N4)C3)C2)c(F)cc1C(F)(F)F` [Example 115, (2s,4s)-2-((3-((2-fluoro-5-methyl-4-(trifluoromethyl)benzyl)oxy)azetidin-1-yl)carbonyl)-7-oxa-5-azaspiro[3.4]octan-6-one], the inhibition at 10 µM was 100%.

For `O=C1N[C@]2(CO1)C[C@H](C(=O)N1CC(OCc3ccc(OC(F)(F)F)c(Cl)c3)C1)C2` [Example 116, (2s,4s)-2-((3-((3-chloro-4-(trifluoromethoxy)benzyl)oxy)azetidin-1-yl)carbonyl)-7-oxa-5-azaspiro[3.4]octan-6-one], the inhibition at 10 µM was found to be 100%.

As to `O=C1N[C@]2(CO1)C[C@H](C(=O)N1CC(CC(F)(F)c3ccc(C(F)(F)F)cc3Cl)C1)C2` [Example 117, (2s,4s)-2-((3-(2-(2-chloro-4-(trifluoromethyl)phenyl)-2,2-difluoroethyl)azetidin-1-yl)carbonyl)-7-oxa-5-azaspiro[3.4]octan-6-one], the inhibition at 10 µM came out at 100%.

With `O=C1N[C@]2(CO1)C[C@H](C(=O)N1CC(CC(F)(F)c3ccc(Cl)c(C(F)(F)F)c3)C1)C2` [Example 118, (2s,4s)-2-((3-(2-(4-chloro-3-(trifluoromethyl)phenyl)-2,2-difluoroethyl)azetidin-1-yl)carbonyl)-7-oxa-5-azaspiro[3.4]octan-6-one], the inhibition at 10 µM was found to be 100%.

On to `Cc1ccc(COCC2CN(C(=O)[C@H]3C[C@]4(COC(=O)N4)C3)C2)cc1Cl` [Example 120, (2s,4s)-2-((3-(((3-chloro-4-methylbenzyl)oxy)methyl)azetidin-1-yl)carbonyl)-7-oxa-5-azaspiro[3.4]octan-6-one], for which the inhibition at 10 µM was 100%.

`Cc1cc(COCC2CN(C(=O)[C@H]3C[C@]4(COC(=O)N4)C3)C2)ccc1Cl` [Example 121, (2s,4s)-2-((3-(((4-chloro-3-methylbenzyl)oxy)methyl)azetidin-1-yl)carbonyl)-7-oxa-5-azaspiro[3.4]octan-6-one]: the inhibition at 10 µM was found to be 101%.

For `Cc1ccc(COC2CN(C(=O)[C@H]3C[C@@]4(COC(=O)N4)C3)C2)cc1Cl` [Example 123, (2r,4r)-2-((3-((3-chloro-4-methylbenzyl)oxy)azetidin-1-yl)carbonyl)-7-oxa-5-azaspiro[3.4]octan-6-one], the inhibition at 10 µM amounted to 99%.

Take `N#Cc1cc(C(F)(F)F)ccc1OCC1CCN(C(=O)[C@H]2C[C@]3(COC(=O)N3)C2)CC1` [Example 128, 2-((1-(((2s,4s)-6-oxo-7-oxa-5-azaspiro[3.4]oct-2-yl)carbonyl)piperidin-4-yl)methoxy)-5-(trifluoromethyl)benzonitrile]: the inhibition at 10 µM was determined as 100%.

In the case of `N#Cc1cc(Cl)ccc1OCC1CCN(C(=O)[C@H]2C[C@]3(COC(=O)N3)C2)CC1` [Example 129, 5-chloro-2-((1-(((2s,4s)-6-oxo-7-oxa-5-azaspiro[3.4]oct-2-yl)carbonyl)piperidin-4-yl)methoxy)benzonitrile], the inhibition at 10 µM came out at 100%.

In the case of `N#Cc1ccc(OCC2CCN(C(=O)[C@H]3C[C@]4(COC(=O)N4)C3)CC2)c(Cl)c1` [Example 130, 3-chloro-4-((1-(((2s,4s)-6-oxo-7-oxa-5-azaspiro[3.4]oct-2-yl)carbonyl)piperidin-4-yl)methoxy)benzonitile], the inhibition at 10 µM is 100%.

(Values after patent US10323026B2, “Heterocyclic compound” (Takeda Pharmaceutical Company Limited, priority 2016, dated 2019).)
